From US20260355196A1, “INHIBITORS AND DEGRADERS OF PIP4K PROTEIN” (Larkspur Biosciences, Inc., priority 2023, published 2026) come the findings set out here.

By DC50 is commonly meant the midpoint of the concentration-degradation curve.

The target in the assay is T1, PIP4K2C (Homo sapiens, UniProt Q8TBX8).
T1 sequence (Q8TBX8 1-421): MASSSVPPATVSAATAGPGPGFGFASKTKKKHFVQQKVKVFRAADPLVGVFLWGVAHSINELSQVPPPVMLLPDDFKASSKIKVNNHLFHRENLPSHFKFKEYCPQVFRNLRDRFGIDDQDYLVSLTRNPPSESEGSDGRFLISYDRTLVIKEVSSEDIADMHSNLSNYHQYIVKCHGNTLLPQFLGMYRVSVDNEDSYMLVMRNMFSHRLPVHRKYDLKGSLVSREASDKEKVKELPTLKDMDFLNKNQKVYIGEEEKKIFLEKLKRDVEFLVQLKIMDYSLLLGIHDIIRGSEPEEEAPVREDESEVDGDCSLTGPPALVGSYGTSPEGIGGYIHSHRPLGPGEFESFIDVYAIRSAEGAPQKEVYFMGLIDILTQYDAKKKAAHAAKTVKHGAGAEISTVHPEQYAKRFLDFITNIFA
The experiment in a line: HiBiT PIP4K2C degradation assay in MOLT-4 cells (endogenous PIP4K2C C-terminally tagged with HiBiT). Conditions: 24 hours incubation, MOLT-4, top concentration 10 micromolar; read-out: HiBIT-degradation MOLT4 PIP4k2C 24 hours DC50. Type of assay: cell-based. The arrangement: untagged in primary human PBMCs and monocyte-derived dendritic cells. A digest of the protocol: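 MOLT-4 knock-in line, HiBiT on PIP4K2C C-terminus; 22,500 cells/well; 10-pt 3-fold titration from 10 micromolar, n=2; 24 h or 6 h, 37 C, 5% CO2; Nano-Glo HiBiT lytic luminescence; DC50 via Hill equation.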
A general note: HiBiT is a short tag that completes a luciferase, so light tracks the accessible tagged protein.
Regarding `Cn1c(=O)n(C2CCC(=O)NC2=O)c2ccc(C3CCN(CC4CCN(CC(=O)N5CCC(Nc6ncc(Cl)c(-c7cccc(-c8ccccc8)c7)n6)CC5)CC4)CC3)cc21` (centres unmarked) [Compound 47, 3-(5-(1-((1-(2-(4-((4-([1,1′-biphenyl]-3-yl)-5-chloropyrimidin-2-yl)amino)piperidin-1-yl)-2-oxoethyl)piperidin-4-yl)methyl)piperidin-4-yl)-3-methyl-2-oxo-2,3-dihydro-1H-benzo[d]imidazol-1-yl)piperidine-2,6-dione], the DC50 is less than 500 nM. Consider `O=C1CCC(Nc2ccc(C3CCN(C4CCN(CCC(=O)N5CCC(Nc6ncc(Cl)c(-c7cccc(-c8ccccc8)c7)n6)CC5)CC4)CC3)cc2)C(=O)N1` (centres unmarked) [Compound 48, 3-((4-(1′-(3-(4-((4-([1,1′-biphenyl]-3-yl)-5-chloropyrimidin-2-yl)amino)piperidin-1-yl)-3-oxopropyl)-[1,4′-bipiperidin]-4-yl)phenyl)amino)piperidine-2,6-dione], for which the half-maximal degradation concentration (DC50) was less than 500 nM. Take `O=C1CCC(N2Cc3cc(C4CCN(CC5CCN(CC(=O)N6CCC(Nc7ncc(Cl)c(-c8cccc(-c9ccccc9)c8)n7)CC6)CC5)CC4)ccc3C2=O)C(=O)N1` (centres unmarked) [Compound 50]: the half-maximal degradation concentration (DC50) was less than 500 nM. Take `O=C1CCC(Nc2ccc(C3CCN(CC4CCN(CC(=O)N5CCC(Nc6ncc(Cl)c(-c7cccc(-c8ccccc8)c7)n6)CC5)CC4)CC3)cc2)C(=O)N1` (centres unmarked) [Compound 53, 3-((4-(1-((1-(2-(4-((4-([1,1′-biphenyl]-3-yl)-5-chloropyrimidin-2-yl)amino)piperidin-1-yl)-2-oxoethyl)piperidin-4-yl)methyl)piperidin-4-yl)phenyl)amino)piperidine-2,6-dione]: the DC50 was in the range of 500 to 1000 nM. On to `O=C1CCC(N2Cc3cc(C4CCN(C(=O)CN5CCC(C(=O)N6CCC(Nc7ncc(Cl)c(-c8cccc(-c9ccccc9)c8)n7)CC6)CC5)CC4)ccc3C2=O)C(=O)N1` (centres unmarked) [Compound 56, 3-(5-(1-(2-(4-(4-((4-([1,1′-biphenyl]-3-yl)-5-chloropyrimidin-2-yl)amino)piperidine-1-carbonyl)piperidin-1-yl)acetyl)piperidin-4-yl)-1-oxoisoindolin-2-yl)piperidine-2,6-dione], for which the DC50 is less than 500 nM.

Take `O=C(COc1cccc2c1C(=O)N(C1CCC(=O)NC1=O)C2=O)NCCCCCCCCCC(=O)N1CCC(Nc2ncc(Cl)c(-c3cccc(-c4ccccc4)c3)n2)CC1` (centres unmarked) [Compound 66, N-(10-(4-((4-([1,1′-biphenyl]-3-yl)-5-chloropyrimidin-2-yl)amino)piperidin-1-yl)-10-oxodecyl)-2-((2-(2,6-dioxopiperidin-3-yl)-1,3-dioxoisoindolin-4-yl)oxy)acetamide]: the DC50 is 500 to 1000 nM. As for `O=C(COc1ccc2c(c1)CN(C1CCC(=O)NC1=O)C2=O)NCCC(=O)N1CCC(C(=O)N2CCC(Nc3ncc(Cl)c(-c4cccc(-c5ccccc5)c4)n3)CC2)CC1` (centres unmarked) [Compound 67, N-(3-(4-(4-((4-([1,1′-biphenyl]-3-yl)-5-chloropyrimidin-2-yl)amino)piperidine-1-carbonyl)piperidin-1-yl)-3-oxopropyl)-2-((2-(2,6-dioxopiperidin-3-yl)-1-oxoisoindolin-5-yl)oxy)acetamide], the figure is less than 500 nM; as for `O=C(COc1ccc2c(c1)CN(C1CCC(=O)NC1=O)C2=O)NCCCC(=O)N1CCC(C(=O)N2CCC(Nc3ncc(Cl)c(-c4cccc(-c5ccccc5)c4)n3)CC2)CC1` (centres unmarked) [Compound 68, N-(4-(4-(4-((4-([1,1′-biphenyl]-3-yl)-5-chloropyrimidin-2-yl)amino)piperidine-1-carbonyl)piperidin-1-yl)-4-oxobutyl)-2-((2-(2,6-dioxopiperidin-3-yl)-1-oxoisoindolin-5-yl)oxy)acetamide], less than 500 nM.

As for `O=C(COc1cccc2c1CN(C1CCC(=O)NC1=O)C2=O)NCCCCC(=O)N1CCC(C(=O)N2CCC(Nc3ncc(Cl)c(-c4cccc(-c5ccccc5)c4)n3)CC2)CC1` (centres unmarked) [Compound 69, N-(5-(4-(4-((4-([1,1′-biphenyl]-3-yl)-5-chloropyrimidin-2-yl)amino)piperidine-1-carbonyl)piperidin-1-yl)-5-oxopentyl)-2-((2-(2,6-dioxopiperidin-3-yl)-1-oxoisoindolin-4-yl)oxy)acetamide], the DC50 is less than 500 nM. Turning to `O=C1CCC(N2Cc3cc(C4CCN(C5CCN(CC(=O)N6CCC[C@H](Nc7ncc(Cl)c(-c8cccc(-c9ccccc9)c8)n7)C6)CC5)CC4)ccc3C2=O)C(=O)N1` (stereo partly drawn) [Compound 70, 3-(5-(1′-(2-((S)-3-((4-([1,1′-biphenyl]-3-yl)-5-chloropyrimidin-2-yl)amino)piperidin-1-yl)-2-oxoethyl)-[1,4′-bipiperidin]-4-yl)-1-oxoisoindolin-2-yl)piperidine-2,6-dione], the half-maximal degradation concentration (DC50) was less than 500 nM. Regarding `O=C1CCC(N2Cc3cc(C4CCN(C5CCN(CC(=O)N6CCC(Nc7ncc(Cl)c(-c8cccc(-c9ccccc9)c8)n7)CC6)CC5)CC4)ccc3C2=O)C(=O)N1` (centres unmarked) [Compound 71, 3-(5-(1′-(2-(4-((4-([1,1′-biphenyl]-3-yl)-5-chloropyrimidin-2-yl)amino)piperidin-1-yl)-2-oxoethyl)-[1,4′-bipiperidin]-4-yl)-1-oxoisoindolin-2-yl)piperidine-2,6-dione], the DC50 is less than 500 nM. For `Cn1c(=O)n(C2CCC(=O)NC2=O)c2ccc(C3CCN(C4CCN(CC(=O)N5CCC(Nc6ncc(Cl)c(-c7cccc(-c8ccccc8)c7)n6)CC5)CC4)CC3)cc21` (centres unmarked) [Compound 72, 3-(5-(1′-(2-(4-((4-([1,1′-biphenyl]-3-yl)-5-chloropyrimidin-2-yl)amino)piperidin-1-yl)-2-oxoethyl)-[1,4′-bipiperidin]-4-yl)-3-methyl-2-oxo-2,3-dihydro-1H-benzo[d]imidazol-1-yl)piperidine-2,6-dione], the half-maximal degradation concentration (DC50) is less than 500 nM. In the case of `Cn1c(=O)n(C2CCC(=O)NC2=O)c2ccc(C3CCN(CC4CCN(CC(=O)N5CCC[C@H](Nc6ncc(Cl)c(-c7cccc(-c8ccccc8)c7)n6)C5)CC4)CC3)cc21` (stereo partly drawn) [Compound 73, 3-(5-(1-((1-(2-((S)-3-((4-([1,1′-biphenyl]-3-yl)-5-chloropyrimidin-2-yl)amino)piperidin-1-yl)-2-oxoethyl)piperidin-4-yl)methyl)piperidin-4-yl)-3-methyl-2-oxo-2,3-dihydro-1H-benzo[d]imidazol-1-yl)piperidine-2,6-dione], the half-maximal degradation concentration (DC50) is less than 500 nM. As for `O=C1CCC(Nc2ccc(C3CCN(CCN4CCC(C(=O)N5CCC(Nc6ncc(Cl)c(-c7cccc(-c8ccccc8)c7)n6)CC5)CC4)CC3)cc2)C(=O)N1` (centres unmarked) [Compound 74, 3-((4-(1-(2-(4-(4-((4-([1,1′-biphenyl]-3-yl)-5-chloropyrimidin-2-yl)amino)piperidine-1-carbonyl)piperidin-1-yl)ethyl)piperidin-4-yl)phenyl)amino)piperidine-2,6-dione], the 50% degradation concentration (DC50) was less than 500 nM. In the case of `Cn1c(=O)n(C2CCC(=O)NC2=O)c2ccc(C3CCN(C4CCN(CC(=O)N5CCC[C@H](Nc6ncc(Cl)c(-c7cccc(-c8ccccc8)c7)n6)C5)CC4)CC3)cc21` (stereo partly drawn) [Compound 75, 3-(5-(1′-(2-((S)-3-((4-([1,1′-biphenyl]-3-yl)-5-chloropyrimidin-2-yl)amino)piperidin-1-yl)-2-oxoethyl)-[1,4′-bipiperidin]-4-yl)-3-methyl-2-oxo-2,3-dihydro-1H-benzo[d]imidazol-1-yl)piperidine-2,6-dione], the DC50 was less than 500 nM. As for `O=C1CCC(N2Cc3cc(C4CCN(CCN5CCC(C(=O)N6CCC[C@H](Nc7ncc(Cl)c(-c8cccc(-c9ccccc9)c8)n7)C6)CC5)CC4)ccc3C2=O)C(=O)N1` (some centres unmarked) [Compound 78], the figure is less than 500 nM.

For the compound `O=C1CCC(N2Cc3cc(OC4CCN(C(=O)CN5CCC(C(=O)N6CCC(Nc7ncc(Cl)c(-c8cccc(-c9ccccc9)c8)n7)CC6)CC5)CC4)ccc3C2=O)C(=O)N1` (centres unmarked) [Compound 83, 3-(5-((1-(2-(4-(4-((4-([1,1′-biphenyl]-3-yl)-5-chloropyrimidin-2-yl)amino)piperidine-1-carbonyl)piperidin-1-yl)acetyl)piperidin-4-yl)oxy)-1-oxoisoindolin-2-yl)piperidine-2,6-dione], the half-maximal degradation concentration (DC50) is less than 500 nM. Take `O=C1CCC(Nc2ccc(N3CCC(N4CCN(CCC(=O)N5CCC(Nc6ncc(Cl)c(-c7cccc(-c8ccccc8)c7)n6)CC5)CC4)CC3)cc2)C(=O)N1` (centres unmarked) [Compound 84, 3-((4-(4-(4-(3-(4-((4-([1,1′-biphenyl]-3-yl)-5-chloropyrimidin-2-yl)amino)piperidin-1-yl)-3-oxopropyl)piperazin-1-yl)piperidin-1-yl)phenyl)amino)piperidine-2,6-dione]: the DC50 is less than 500 nM. In the case of `O=C1CCC(N2Cc3cc(OC4CCN(CC5CCN(CC(=O)N6CCC(Nc7ncc(Cl)c(-c8cccc(-c9ccccc9)c8)n7)CC6)CC5)CC4)ccc3C2=O)C(=O)N1` (centres unmarked) [Compound 85, 3-(5-((1-((1-(2-(4-((4-([1,1′-biphenyl]-3-yl)-5-chloropyrimidin-2-yl)amino)piperidin-1-yl)-2-oxoethyl)piperidin-4-yl)methyl)piperidin-4-yl)oxy)-1-oxoisoindolin-2-yl)piperidine-2,6-dione], the DC50 was less than 500 nM. As for `O=C1CCC(N2Cc3cc(C4CCN(C5CCN(CCC(=O)N6CCC(Nc7ncc(Cl)c(-c8cccc(-c9ccccc9)c8)n7)CC6)CC5)CC4)ccc3C2=O)C(=O)N1` (centres unmarked) [Compound 86, 3-(5-(1′-(3-(4-((4-([1,1′-biphenyl]-3-yl)-5-chloropyrimidin-2-yl)amino)piperidin-1-yl)-3-oxopropyl)-[1,4′-bipiperidin]-4-yl)-1-oxoisoindolin-2-yl)piperidine-2,6-dione], the figure is 500 to 1000 nM.
